Assay results taken from patent publication US12576094B2, “Combination cannabinoid-phenylethanoid formulation for treatment of inflammation and methods related thereto” (Canole LLC, priority 2019, dated 2026).

Tests used:
[1] = test system: IL-13 production by chondrocytes (C-28/I2); test: cytokine array of conditioned media from IL1β-stimulated chondrocytes: IL-13; type: cell-based, human; settings: Moderate level (2.00 μM) of CBD alone, IL1β 10 ng/ml, 24 hours, no serum, FIG. 2
Source text: Antimicrobials were not added to the media.
Three wells were utilized per sample condition.

C-28/I2 chondrocytes = test: toxicity screen to establish maximum tolerable concentrations in chondrocytes
Source text: A clonal derivative of ATCC-certified normal chondrocytes was used for a study to determine cytokine expression. The parent line was originally derived from costal cartilage of an adolescent person. The cell line used is C-28/I2 accession number CVCL_0187. The cells were immortalized via retroviral vector-mediated SV40 Large T antigen expression. Cells were confirmed negative for mycoplasma contamination and genotyped by STR analysis to verify cell identity. This cell line is widely used as a model for studying normal and pathological cartilage repair mechanisms and inflammation.
The cells were cultured at 37° C. with 5% CO2, DMEM/F12 media supplemented with 10% heat-inactivated fetal bovine serum. Antimicrobials were not added to the media. Cells were maintained between 40 and 80% confluency to avoid terminal differentiation. Cells used for the experiments had been passaged no more than ten times prior to each experiment.
A series of pilot studies were performed to design the final full-scale experiment. First, a toxicity screen for each test compound was performed to establish maximum tolerable concentrations in this model system. Second, assays were run to establish the optimal means of inducing a pro-inflammatory state in the cell culture system. Third, conditions were tested to set the most favorable dilution scheme in order to maintain samples within the linear range of detection for each analyte. To establish the test concentrations for each test compound, chondrocytes were treated with a serial dilution of each compound, for 24 and 48 hours under serum free conditions. Oleocanthal or CBD were tested at two-fold dilutions down from a concentration of 50 micromolar (μM).

| SMILES | generated amount of IL13 [1] | maximum tolerable concentration (C-28/I2 chondrocytes; chondrocytes, 24 hours post-treatment, serum free) | maximum tolerable concentration (C-28/I2 chondrocytes; human, 24 h) |
| --- | --- | --- | --- |
| C=C(C)[C@@H]1CCC(C)=C[C@H]1c1c(O)cc(CCCCC)cc1O [CBD, cannabidiol] | greatly reduced | 6 µM |  |
| C/C=C(/C=O)[C@@H](CC=O)CC(=O)OCCc1ccc(O)cc1 [oleocanthal] |  |  | 6 µM |
| O=C(O)c1cccnc1 [niacin, niacin/nicotinic acid] |  |  | 1000 µM |
